From ChEMBL document CHEMBL1141167, “Antitumor activity of new substituted 3-(5-imidazo[2,1-b]thiazolylmethylene)-2-indolinones and study of their effect on the cell cycle” (2005)
“And” between values parts separate entries of the source, which are not always exact repeats. Identical values can stand only once.

Key:
[1] = system: Prostate cell; experiment: Growth inhibitory concentration dissolved in DMSO against human Prostate cell line at 10E-4 M concentration; type: functional
[2] = system: Ovarian carcinoma cell; experiment: Growth inhibitory concentration dissolved in DMSO against human Ovarian cell line at 10E-4 M concentration; type: functional
[3] = system: Breast carcinoma cell; experiment: Cytotoxic effect dissolved in DMSO against Breast cell line at 10E-4 M concentration; type: functional, Homo sapiens
[4] = system: Colon cell; experiment: Cytotoxic effect dissolved in DMSO against Colon cell line at 10E-4 M concentration; type: functional, Homo sapiens
[5] = system: HT-29; experiment: Percentage of Cells after administration of compound dissolved in DMSO (10e-8 M) towards colon adenocarcinoma cell line HT-29 in G2/M Phase after 24 Hours of Treatment [control = 10]; type: functional, Homo sapiens
[6] = system: Panel NCI-60 (60 carcinoma cell lines); experiment: Growth inhibitory concentration dissolved in DMSO against human MG-MID cell line at 10E-4 M concentration; type: functional
[7] = system: NSCLC; experiment: Growth inhibitory concentration dissolved in DMSO against human NSCLC cell line at 10E-4 M concentration; type: functional; set-up: unit not given here
[8] = system: Melanoma cell; experiment: Total growth inhibition of human Melanoma cell line at 10E-4 M concentration; type: functional
[9] = system: Renal cell; experiment: Cytotoxic effect dissolved in DMSO against Renal cell line at 10E-4 M concentration; type: functional, Homo sapiens
[10] = system: Colon cell; experiment: Growth inhibitory concentration dissolved in DMSO against human Colon cell line at 10E-4 M concentration; type: functional
[11] = system: Melanoma cell; experiment: Cytotoxic effect dissolved in DMSO against Melanoma cell line at 10E-4 M concentration; type: functional, Homo sapiens
[12] = system: HT-29; experiment: Percentage of Cells after administration of compound dissolved in DMSO (10e-6 M) towards colon adenocarcinoma cell line HT-29 in G2/M Phase after 24 Hours of Treatment [control = 10]; type: functional, Homo sapiens
[13] = system: Ovarian carcinoma cell; experiment: Cytotoxic effect dissolved in DMSO against Ovarian cell line at 10E-4 M concentration; type: functional, Homo sapiens
[14] = system: Renal cell; experiment: Growth inhibitory concentration dissolved in DMSO against human Renal cell line at 10E-4 M concentration; type: functional; set-up: unit not given here
[15] = system: Melanoma cell; experiment: Growth inhibitory concentration dissolved in DMSO against human Melanoma cell line at 10E-4 M concentration; type: functional
[16] = system: HT-29; experiment: Percentage of Cells after administration of compound dissolved in DMSO (10e-7M) towards colon adenocarcinoma cell line HT-29 in G2/M Phase after 24 Hours of Treatment [control = 10]; type: functional, Homo sapiens
[17] = system: Panel NCI-60 (60 carcinoma cell lines); experiment: Cytotoxic effect dissolved in DMSO against MG-MID cell line at 10E-4 M concentration; type: functional, Homo sapiens
[18] = system: Prostate cell; experiment: Total growth inhibition of human Prostate cell line at 10E-4 M concentration; type: functional
[19] = system: NSCLC; experiment: Cytotoxic effect dissolved in DMSO against NSCLC cell line at 10E-4 M concentration; type: functional, Homo sapiens
[20] = system: Ovarian carcinoma cell; experiment: Total growth inhibition of human Ovarian cell line at 10E-4 M concentration; type: functional
[21] = system: Colon cell; experiment: Total growth inhibition of human Colon cell line at 10E-4 M concentration; type: functional; set-up: unit not given here
[22] = system: Prostate cell; experiment: Cytotoxic effect dissolved in DMSO against Prostate cell line at 10E-4 M concentration; type: functional, Homo sapiens
[23] = system: CNS cell; experiment: Cytotoxic effect dissolved in DMSO against CNS cell line at 10E-4 M concentration; type: functional, Homo sapiens
[24] = system: HT-29; experiment: Percentage of Cells after administration of compound dissolved in DMSO (10e-5 M) towards colon adenocarcinoma cell line HT-29 in G2/M Phase after 24 Hours of Treatment [control = 10]; type: functional, Homo sapiens
[25] = system: Breast carcinoma cell; experiment: Growth inhibitory concentration dissolved in DMSO against human Breast cell line at 10E-4 M concentration; type: functional
[26] = system: Panel NCI-60 (60 carcinoma cell lines); experiment: Total growth inhibition of human MG-MID cell line at 10E-4 M concentration; type: functional
[27] = system: Breast carcinoma cell; experiment: Total growth inhibition of human Breast cell line at 10E-4 M concentration; type: functional
[28] = system: CNS cell; experiment: Growth inhibitory concentration dissolved in DMSO against human CNS cell line at 10E-4 M concentration; type: functional
[29] = system: NSCLC; experiment: Total growth inhibition of human NSCLC cell line at 10E-4 M concentration; type: functional
[30] = system: HT-29; experiment: Percentage of Cells after administration of compound dissolved in DMSO (10e-4 M) towards colon adenocarcinoma cell line HT-29 in G2/M Phase after 24 Hours of Treatment [control = 10]; type: functional, Homo sapiens
[31] = system: Melanoma cell; experiment: Cytotoxic effect dissolved in DMSO against Melanoma cell line at 10E-3 M concentration; type: functional, Homo sapiens
[32] = system: Panel NCI-60 (60 carcinoma cell lines); experiment: Total growth inhibition of human MG-MID cell line at 10E-3 M concentration; type: functional
[33] = system: Renal cell; experiment: Growth inhibitory concentration dissolved in DMSO against human Renal cell line at 10E-3 M concentration; type: functional
[34] = system: NSCLC; experiment: Cytotoxic effect dissolved in DMSO against NSCLC cell line at 10E-3 M concentration; type: functional, Homo sapiens
[35] = system: Leukemia cell; experiment: Cytotoxic effect dissolved in DMSO against Leukemia cell line at 10E-3 M concentration; type: functional, Homo sapiens
[36] = system: Colon cell; experiment: Cytotoxic effect dissolved in DMSO against Colon cell line at 10E-3 M concentration; type: functional, Homo sapiens
[37] = system: Leukemia cell; experiment: Growth inhibitory concentration dissolved in DMSO against human leukemia cell line at 10E-3 M concentration; type: functional
[38] = system: Melanoma cell; experiment: Total growth inhibition of human Melanoma cell line at 10E-3 M concentration; type: functional
[39] = system: Breast carcinoma cell; experiment: Total growth inhibition of human Breast cell line at 10E-3 M concentration; type: functional
[40] = system: Leukemia cell; experiment: Total growth inhibition of human Leukemia cell line at 10E-3 M concentration; type: functional
[41] = system: NSCLC; experiment: Total growth inhibition of human NSCLC cell line at 10E-3 M concentration; type: functional
[42] = system: Breast carcinoma cell; experiment: Growth inhibitory concentration dissolved in DMSO against human Breast cell line at 10E-3 M concentration; type: functional
[43] = system: Panel NCI-60 (60 carcinoma cell lines); experiment: Growth inhibitory concentration dissolved in DMSO against human MG-MID cell line at 10E-3 M concentration; type: functional
[44] = system: Ovarian carcinoma cell; experiment: Growth inhibitory concentration dissolved in DMSO against human Ovarian cell line at 10E-3 M concentration; type: functional
[45] = system: Breast carcinoma cell; experiment: Cytotoxic effect dissolved in DMSO against Breast cell line at 10E-3 M concentration; type: functional, Homo sapiens
[46] = system: Prostate cell; experiment: Cytotoxic effect dissolved in DMSO against Prostate cell line at 10E-3 M concentration; type: functional, Homo sapiens
[47] = system: Melanoma cell; experiment: Growth inhibitory concentration dissolved in DMSO against human Melanoma cell line at 10E-3 M concentration; type: functional
[48] = system: Renal cell; experiment: Cytotoxic effect dissolved in DMSO against Renal cell line at 10E-3 M concentration; type: functional, Homo sapiens
[49] = system: Colon cell; experiment: Growth inhibitory concentration dissolved in DMSO against human Colon cell line at 10E-3 M concentration; type: functional
[50] = system: Ovarian carcinoma cell; experiment: Cytotoxic effect dissolved in DMSO against Ovarian cell line at 10E-3 M concentration; type: functional, Homo sapiens
[51] = system: Prostate cell; experiment: Total growth inhibition of human Prostate cell line at 10E-3 M concentration; type: functional
[52] = system: Renal cell; experiment: Total growth inhibition of human Renal cell line at 10E-3 M concentration; type: functional
[53] = system: Colon cell; experiment: Total growth inhibition of human Colon cell line at 10E-3 M concentration; type: functional
[54] = system: NSCLC; experiment: Growth inhibitory concentration dissolved in DMSO against human NSCLC cell line at 10E-3 M concentration; type: functional
[55] = system: Panel NCI-60 (60 carcinoma cell lines); experiment: Cytotoxic effect dissolved in DMSO against MG-MID cell line at 10E-3 M concentration; type: functional, Homo sapiens
[56] = system: CNS cell; experiment: Total growth inhibition of human CNS cell line at 10E-3 M concentration; type: functional
[57] = system: CNS cell; experiment: Growth inhibitory concentration dissolved in DMSO against human CNS cell line at 10E-3 M concentration; type: functional
[58] = system: Prostate cell; experiment: Growth inhibitory concentration dissolved in DMSO against human Prostate cell line at 10E-3 M concentration; type: functional
[59] = system: Ovarian carcinoma cell; experiment: Total growth inhibition of human Ovarian cell line at 10E-3 M concentration; type: functional
[60] = system: CNS cell; experiment: Cytotoxic effect dissolved in DMSO against CNS cell line at 10E-3 M concentration; type: functional, Homo sapiens

## Cc1cn2c(/C=C3/C(=O)Nc4ccc(Cl)cc43)c(C)nc2s1
[1]
  pGI50 (negative log molar GI50): 6.98
[2]
  pGI50 (negative log of GI50 in M): 5.91
[3]
  LC50: 4.02
[4]
  LC50: 4.34
[5]
  Activity: 11.1%
[6]
  GI50: -6.42
[7]
  GI50: 6.17
[8]
  TGI: 4.6
[9]
  LC50: 4.06
[10]
  pGI50 (negative log of molar GI50): 6.72
[11]
  LC50: 4.06
[12]
  Activity: 72%
[13]
  LC50: 4.3
[14]
  GI50: 6.54
[15]
  pGI50 (-log molar GI50): 6.21
[16]
  Activity: 9.7%
[17]
  LC50: 4.15
[18]
  TGI: 5.62
[19]
  LC50: 4.16
[20]
  TGI: 4.82
[21]
  TGI: 5.06 and 5.08
[22]
  LC50: 4.36
[23]
  LC50: 4.16
[24]
  Activity: 86.2%
[25]
  pGI50 (-log GI50, M): 6.51
[26]
  TGI: 4.81
[27]
  TGI: 4.85
[28]
  pGI50 (-log GI50, M): 6.13
[29]
  TGI: 4.65
[30]
  Activity: 61.6%

## CC[C@]1(O)C[C@H]2CN(CCc3c([nH]c4ccccc34)[C@@](C(=O)OC)(c3cc4c(cc3OC)N(C=O)[C@H]3[C@@](O)(C(=O)OC)[C@H](OC(C)=O)[C@]5(CC)C=CCN6CC[C@]43[C@@H]65)C2)C1.O=S(=O)(O)O [VINCRISTINE SULFATE]
[31]
  LC50: 3.6
[32]
  pTGI: 5
[33]
  pGI50: 6.5
[34]
  LC50: 3.6
[35]
  LC50: 3.2
[36]
  LC50: 4.1
[37]
  pGI50: 7
[38]
  pTGI: 5.1
[39]
  pTGI: 5.1
[40]
  pTGI: 4.8
[41]
  pTGI: 4.8
[42]
  pGI50: 6.5
[43]
  pGI50: 6.7
[44]
  pGI50: 6.5
[45]
  LC50: 3.5
[46]
  LC50: 3.5
[47]
  pGI50: 6.8
[48]
  LC50: 3.6
[49]
  pGI50: 7
[50]
  LC50: 3.5
[51]
  pTGI: 5.2
[52]
  pTGI: 4.7
[53]
  pTGI: 5.4
[54]
  pGI50: 6.6
[55]
  LC50: 3.6
[56]
  pTGI: 5.2
[57]
  pGI50: 6.9
[58]
  pGI50: 6.9
[59]
  pTGI: 4.7
[60]
  LC50: 3.7
